Experimental data taken from US7087658B2, “Water-soluble coating agents bearing initiator groups” (SurModics, Inc., priority 1999, dated 2006).

Columns and labels:
[1] = test system: intrinsic and common pathways of coagulation; assay: Partial thromboplastin time (PTT) test; assay type: biochemical
Description: A useful test in determining the hemocompatibility of a reagent is the partial thromboplastin time (PTT) test. The PTT is a test of the intrinsic (factors VIII, IX, XI, and XII) and common (fibrinogen, prothrombin, factors V and X) pathways of coagulation. A mixture of plasma and phospholipid platelet substitute (rabbit brain cephalin) is recalcified and the time required for the appearance of fibrin strands measured.
The PTT was tested to determine whether Compound I or Compound II have the ability to extend the control PTT. A test tube of rabbit brain cephalin (Sigma #RBC) in 0.85% NaCl and a test tube of 0.02 M CaCl2 was brought to 37° C. in a water bath. Dade Ci-trol coagulation control lyophilized plasma (Dade International, Inc., product no. 34224-10) was reconstituted in sterile deionized water. In 10×75 mm glass test tubes, 100 μl reconstituted plasma and 100 μl RBC were mixed and incubated at 37° C. in a water bath for 5 minutes. Next, 50 μl of sample (deionized water, a photocrosslinkable polyvinylpyrrolidone (available from SurModics, Inc., product no. PVO5), or Compound I or II) was added and mixed. While simultaneously starting a stop watch, 100 μl of 0.02 M CaCl2 was added to initiate the clotting cascade. After 40 seconds had passed, the test tubes were shaken lightly, observed for fibrin formation, and the number of seconds was recorded.
All samples were tested in duplicate. The appropriate control PTT, depending upon what solvent in which the reagent was dissolved, was subtracted from the average PTT for the reagent to give the time the control PTT was extended.

[2] = test system: platelets; assay: Platelet attachment and activation from platelet rich plasma (SEM); assay type: cell-based, human; details: coated polyethylene (PE); for Platelet activation, spreading and aggregation: SEM
Description: The surface-modified materials were incubated with platelet rich plasma (PRP), observed with a scanning electron microscope and photographed to determine the influence of surface chemistry on platelet attachment and activation.
Blood was collected fresh from human volunteers into 3.8% (v/v) sodium citrate solution using 9:1 ratio of blood to anticoagulant. The blood was centrifuged at 1200 rpm for 15 minutes to separate PRP from blood. The PRP was collected and kept at room temperature until used (less than 1 hour).
The test samples (½-inch circles) were placed in a 6-well plate, 1 sample per well. The PRP solution was added onto the top of the samples until the entire surface of the sample was covered, and the samples were incubated one hour at room temperature with no agitation. To quantify the platelet solution, a sample of the PRP was taken and diluted 1:100 with 1% (v/v) Oxalate Ammonium. A capillary tube was used to transfer a small amount of solution to a hemacytometer, and the sample was incubated in a covered petri dish for 30 minutes at room temperature for the platelets to settle.
The platelets were counted under a phase contrast microscope and determined to be approximately 50–100×10^9 platelets/L. After incubation, the PRP was removed carefully by aspiration and 3 mls of Tyrode's buffer (138-mM NaCl, 2.9-mM KCl, 12-mM sodium bicarbonate, pH 7.4) gently added to each well. The plates were agitated slightly on an orbital shaker for 15 minutes; the solution was changed and the wash repeated. The wash solution was aspirated and 2.0 ml of Karnovsky's fixative (25-mls formaldehyde, 5-mls 25% glutaraldehyde, 20-mls of a solution of 23% NaH2PO4—H2O, 77% NaHPO4 anhydrous) were added to each well. The plate was wrapped with parafilm and incubated overnight at room temperature with slight agitation.
The fixative was aspirated off and the samples were washed 3 times each with pure water, 15 minutes each. […] The platelets were counted and judged by degree of activation and morphology.

[3] = test system: Beta-Thromboglobulin (β-TG) released from the α-granules of platelets; assay: Beta-Thromboglobulin assay; assay type: cell-based, human; details: coated polyethylene; PRP, one hour at room temperature; enzyme immunoassay
Description: The surface-modified materials were incubated with PRP and the plasma was assayed for the Beta-Thromboglobulin (β-TG) released from the α-granules due to activation of the platelets. Blood was collected fresh from human volunteers into 3.8% (v/v) sodium citrate using 9:1 ratio of blood to anticoagulant. The blood was centrifuged at 1200 rpm for 15 minutes to separate PRP from blood. The PRP was collected and kept at room temperature until used (less than 1 h). The test samples (½-inch circles) were placed in a 6-well plate, 1 sample per well. The PRP solution was added onto the top of the samples until the entire surface of the sample was covered, and the samples incubated one hour at room temperature with no agitation. Control samples of plasma, for initial β-TG levels, were taken prior to incubation.
After incubation with the samples, prostaglandin E1 (Sigma, product no. P5515) was added to each sample and the plasma was assayed with an enzyme immunoassay kit (Asserachrom American Bioproduct, product no. 0250) for the amount of β-TG released.

[4] = final concentration 0.7 mg/ml, solvent H2O
[5] = final concentration 1.43 mg/ml, solvent H2O
[6] = final concentration 0.7 mg/ml, solvent 50% IPA
[7] = final concentration 1.29 mg/ml, solvent 50% IPA

| SMILES | Average PTT [1, 4] [s] | Formed Clot [1, 4] | Time Extended Beyond Control PTT ([1]; final concentration 0.7 mg/ml, solvent H2O, DI H2O control subtracted) [s] | Average PTT [1, 5] [s] | Formed Clot [1, 5] | Time Extended Beyond Control PTT ([1]; final concentration 1.43 mg/ml, solvent H2O, DI H2O control subtracted) [s] | Platelet activation, spreading and aggregation [2] | Morphology of platelets attached to modified surfaces ([2]; SEM photographs) | β-TG release [3] | Average PTT [1, 6] [s] | Formed Clot [1, 6] | Time Extended Beyond Control PTT ([1]; final concentration 0.7 mg/ml, solvent 50% IPA, 50% IPA control subtracted) [s] | Average PTT [1, 7] [s] | Formed Clot [1, 7] | Time Extended Beyond Control PTT ([1]; final concentration 1.29 mg/ml, solvent 50% IPA, 50% IPA control subtracted) [s] | Extension of the 50% IPA control PTT ([1]; higher of the two final concentrations tested, 50% IPA control) [h] | Extension of PTT from water control ([1]; higher of the two final concentrations tested, water control) [h] |
| --- | --- | --- | --- | --- | --- | --- | --- | --- | --- | --- | --- | --- | --- | --- | --- | --- | --- |
| O=C(c1ccccc1)c1ccc(COc2cc(S(=O)(=O)[O-])cc(S(=O)(=O)[O-])c2OCc2ccc(C(=O)c3ccccc3)cc2)cc1.[K+].[K+] [Compound I, 4,5-bis(4-benzoylphenylmethyleneoxy) benzene-1,3-disulfonic acid disodium salt] | 117 | yes | 64 | >3600 | no | >3600 | less activation and spreading | Full coverage, many aggregates, little | lower levels of β-TG release than the uncoated and PVO5 controls |  |  |  |  |  |  |  |  |
| O=C(c1ccccc1)c1ccc(COc2cc(S(=O)(=O)[O-])c(OCc3ccc(C(=O)c4ccccc4)cc3)cc2S(=O)(=O)[O-])cc1.[K+].[K+] [Compound II, 2,5-bis(4-benzoylphenylmethyleneoxy) benzene-1,4-disulfonic acid dipotassium salt] |  |  |  |  |  |  | some spreading pseudopodia, but little or no aggregating |  |  | 134 | yes | 56 | 3600 | yes | 3522 | 1 | ≥ 1 |
